Reference: ChEMBL document CHEMBL1138350, “Allosteric modulation of the dopamine receptor by conformationally constrained type VI beta-turn peptidomimetics of Pro-Leu-Gly-NH2” (J Med Chem, 2007)
Active and inactive are the calls of the source. The calls are words filed in the database; no cut-off is given here. Peptide text beside a SMILES is read from it.

What was measured:
Assay type in all cases: cell membranes
Settings in all cases: Striatum
Bos taurus [1] = species: Bos taurus; assay: Enhancement of [3H]NPA binding to dopamine receptor in bovine striatal membrane at 10 nM
Bos taurus [2] = species: Bos taurus; assay: Enhancement of [3H]NPA binding to dopamine receptor in bovine striatal membrane at 100 nM
Bos taurus [3] = species: Bos taurus; assay: Enhancement of [3H]NPA binding to dopamine receptor in bovine striatal membrane at 1 uM

Activity (Bos taurus [1]) | Activity (Bos taurus [2]) [%] | Activity (Bos taurus [3]) | Compound
11.4% |  |  | NC(=O)[C@]12CCCN1C(=O)[C@@]1(CCCN1C(=O)[C@@H]1CCCN1)CC2
 | 34 |  | NC(=O)[C@@H]1CCCN1C(=O)[C@@H]1CCCN1C(=O)[C@@H]1CCCN1 (H-Pro-Pro-Pro-NH2)
 | 38.2 |  | NC(=O)[C@H]1CS[C@@H]2CC[C@]3(CCCN3C(=O)[C@@H]3CCCN3)C(=O)N12
Active | 19.5 | Active | CC(C)C[C@@]1(NC(=O)[C@@H]2CCCN2)CC[C@@]2(C(N)=O)CCCN2C1=O
